Target: hCereblon(M1-L442)_hDDB1(M1-H1140) (Homo sapiens (Human), UniProt Q96SW2)
Assay: Fluorescence direct binding protocol (tryptophan fluorescence titration)
Conditions: fluorescence titration at 20° C., excited at 280 nm, recorded at 340 nm; protein 5.0 E−8 M; assay buffer 50 mM Hepes 7.4 200 mM NaCl; read-out: Fluorescence h-Cereblon_DDB1 Mean Kd_EQ
Description: Fluorescence Direct Binding Protocol
Determination of the affinities of compounds to protein containing one or more tryptophan is measurable by monitoring the fluorescence emission in direct mode. The measurements depending on the protein available amounts are performed either manually in a cuvette on ISS-PC1 photon counting spectrofluorometer or automatically in well plates on a fluorescence plate reader device. Fluorescence titrations are performed at 20° C. in the chosen binding assay buffer by using a defined constant protein concentration against ligand concentration variations. Small aliquots of known ligand concentration solubilized in DMSO were added and the fluorescence, excited at 280 nm, was recorded at 340 nm. The fluorescence intensity was corrected for protein dilution and for the filter effect (Birdsall et al.^69). The corrected fluorescence intensity was plotted against the ligand concentration and fitted using a four-parameter sigmoidal function, from which the equilibrium dissociation constant Kd was computed using the law of mass action assuming a 1:1 protein-ligand complex (Eftink, 1997^70).
Process • 1) Optimization of measurement parameters to minimize protein consumption and to minimize the dilution effect and the DMSO content • 2) Titration measurements of the protein against ligand by at least 12 titration steps to obtain a good s-curve fit • 3) Repeat the same titration measurements with the ligand alone to enable correction • 4) Check the stability of the protein once by titration against DMSO alone • 5) Determination of the molar extinction coefficients of the ligand at 280 and 340 nm with help of an UV-spectrophotometer • 6) Use Excel template for the correction of the measured raw data • 7) Use GraphPad Prism software for the quadratic binding fit and the KD evaluation.

Sequence of hCereblon(M1-L442)_hDDB1(M1-H1140) (Q96SW2 whole entry): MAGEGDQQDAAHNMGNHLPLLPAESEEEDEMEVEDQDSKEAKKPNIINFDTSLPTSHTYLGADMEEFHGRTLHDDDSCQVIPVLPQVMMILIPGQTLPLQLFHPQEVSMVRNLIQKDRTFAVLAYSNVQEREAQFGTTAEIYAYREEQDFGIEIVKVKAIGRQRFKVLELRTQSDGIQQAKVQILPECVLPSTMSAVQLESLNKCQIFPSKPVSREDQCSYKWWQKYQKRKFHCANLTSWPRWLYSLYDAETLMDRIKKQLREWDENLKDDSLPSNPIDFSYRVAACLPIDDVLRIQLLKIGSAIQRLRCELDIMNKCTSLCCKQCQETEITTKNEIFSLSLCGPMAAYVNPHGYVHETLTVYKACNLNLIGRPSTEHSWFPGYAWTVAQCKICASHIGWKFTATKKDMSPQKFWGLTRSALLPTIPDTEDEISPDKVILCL
Sequence of hCereblon(M1-L442)_hDDB1(M1-H1140) (Q16531 whole entry partner): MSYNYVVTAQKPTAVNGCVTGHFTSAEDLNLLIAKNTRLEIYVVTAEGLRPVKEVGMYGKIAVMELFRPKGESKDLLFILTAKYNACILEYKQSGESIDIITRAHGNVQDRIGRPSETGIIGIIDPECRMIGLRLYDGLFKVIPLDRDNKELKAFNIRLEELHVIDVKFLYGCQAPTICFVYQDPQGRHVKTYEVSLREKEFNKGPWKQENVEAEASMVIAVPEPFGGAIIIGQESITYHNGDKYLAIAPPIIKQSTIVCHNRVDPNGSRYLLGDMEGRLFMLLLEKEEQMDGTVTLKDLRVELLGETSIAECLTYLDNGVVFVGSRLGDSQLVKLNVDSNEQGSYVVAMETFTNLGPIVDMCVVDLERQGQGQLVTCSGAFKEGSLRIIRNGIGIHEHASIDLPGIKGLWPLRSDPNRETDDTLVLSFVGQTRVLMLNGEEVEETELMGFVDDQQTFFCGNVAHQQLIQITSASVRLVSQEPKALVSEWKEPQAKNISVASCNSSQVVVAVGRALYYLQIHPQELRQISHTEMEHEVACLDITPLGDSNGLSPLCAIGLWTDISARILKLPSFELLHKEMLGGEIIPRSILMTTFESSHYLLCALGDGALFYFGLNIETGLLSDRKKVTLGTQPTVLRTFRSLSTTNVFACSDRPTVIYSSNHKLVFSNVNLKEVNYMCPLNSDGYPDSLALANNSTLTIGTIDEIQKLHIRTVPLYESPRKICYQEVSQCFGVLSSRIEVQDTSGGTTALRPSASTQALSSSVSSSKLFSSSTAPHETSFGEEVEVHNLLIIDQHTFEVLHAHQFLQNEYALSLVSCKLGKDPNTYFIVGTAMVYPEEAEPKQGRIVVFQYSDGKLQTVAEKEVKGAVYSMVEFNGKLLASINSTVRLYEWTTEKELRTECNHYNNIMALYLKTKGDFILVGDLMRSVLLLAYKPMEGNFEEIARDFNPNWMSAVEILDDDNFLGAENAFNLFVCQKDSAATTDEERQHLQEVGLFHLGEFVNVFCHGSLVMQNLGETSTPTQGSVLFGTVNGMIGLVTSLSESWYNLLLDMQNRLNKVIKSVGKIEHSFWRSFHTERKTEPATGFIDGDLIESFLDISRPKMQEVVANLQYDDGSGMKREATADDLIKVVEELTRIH

SMILES | Kd [nM]
CNC(=O)c1ccc2c(c1)nc(C(C)(C)C)n2-c1ccc2[nH]c(=O)[nH]c2c1 [Example 46, 2-(tert-Butyl)-N-methyl-2′-oxo-2′,3′-dihydro-1′H-[1,5′-bibenzo[d]imidazole]-5-carboxamide] | 10
COC(=O)c1ccc2nc(C(C)C)n(-c3ccc4[nH]c(=O)[nH]c4c3)c2c1 [Example 48, Methyl 2-isopropyl-2′-oxo-2′,3′-dihydro-1′H-[1,5′-bibenzo[d]imidazole]-6-carboxylate] | 11
O=C(NC1CCNCC1)c1ccc2[nH]c(=O)[nH]c2c1 [Example 51, 2-Oxo-N-(4-piperidyl)-1,3-dihydrobenzimidazole-5-carboxamide] | 138
Cn1c(=O)[nH]c2ccc(Nc3ccccc3N)cc21 [Example 52, 6-((2-Aminophenyl)amino)-1-methyl-1,3-dihydro-2H-benzo[d]imidazol-2-one] | 6
Cn1c(=O)[nH]c2cc(Nc3ccccc3N)ccc21 [Example 53, 5-((2-Aminophenyl)amino)-1-methyl-1,3-dihydro-2H-benzo[d]imidazol-2-one] | 49
COC(=O)c1cccc2c1CCN2C(=O)c1ccc2[nH]c(=O)[nH]c2c1 [Example 54, Methyl 1-(2-oxo-2,3-dihydro-1H-benzo[d]imidazole-5-carbonyl)indoline-4-carboxylate] | 25
CC(=O)N1CCC(NC(=O)c2cnc3[nH]c(=O)[nH]c3c2)CC1 [Example 56, N-(1-Acetylpiperidin-4-yl)-2-oxo-2,3-dihydro-1H-imidazo[4,5-b]pyridine-6-carboxamide] | 2
CNC(=O)c1ccc2c(c1)nc(-c1cccc(COC)c1)n2-c1ccc2[nH]c(=O)[nH]c2c1 [Example 57, 2-(3-(Methoxymethyl)phenyl)-N-methyl-2′-oxo-2′,3′-dihydro-1′H-[1,5′-bibenzo[d]imidazole]-5-carboxamide] | 7
O=c1[nH]c2ccc(N3CCNCC3)cc2[nH]1 [Example 58, 5-(Piperazin-1-yl)-1,3-dihydro-2H-benzo[d]imidazol-2-one] | 12
O=c1[nH]c2ccc(N3C[C@H]4CC[C@@H](C3)N4)cc2[nH]1 [Example 59, 5-[rac-(1S,5R)-3,8-diazabicyclo[3.2.1]octan-3-yl]-1,3-dihydrobenzimidazol-2-one] | 6
O=c1[nH]c2ccc(-n3c(CO)nc4ccccc43)cc2[nH]1 [Example 61, 5-[2-(Hydroxymethyl)benzimidazol-1-yl]-1,3-dihydrobenzimidazol-2-one] | 29
CC(=O)N1[C@@H]2CC[C@H]1CN(c1ccc3[nH]c(=O)[nH]c3c1)C2 [Example 63, 5-[rac-(1S,5R)-8-Acetyl-3,8-diazabicyclo[3.2.1]octan-3-yl]-1,3-dihydrobenzimidazol-2-one] | 79
CNC(=O)c1ccc2c(c1)nc(-c1cn(C)cn1)n2-c1ccc2[nH]c(=O)[nH]c2c1 [Example 65, N-Methyl-2-(1-methyl-1H-imidazol-4-yl)-2′-oxo-2′,3′-dihydro-1′H-[1,5′-bibenzo[d]imidazole]-5-carboxamide] | 9
O=C(Nc1ccc2[nH]c(=O)[nH]c2c1)C1CCc2ccccc21 (stereo not drawn) [Example 69, N-(2-Oxo-2,3-dihydro-1H-benzo[d]imidazol-5-yl)-2,3-dihydro-1H-indene-1-carboxamide] | 29
O=C(Nc1ccc2[nH]c(=O)[nH]c2c1)[C@@H]1CCCc2ccccc21 [Example 72, (R)—N-(2-Oxo-2,3-dihydro-1H-benzo[d]imidazol-5-yl)-1,2,3,4-tetrahydronaphthalene-1-carboxamide] | 14
O=C(Nc1ccccc1)c1ccc2[nH]c(=O)[nH]c2c1 [Example 77, 2-Oxo-N-phenyl-2,3-dihydro-1H-benzo[d]imidazole-5-carboxamide] | 42

Continued, values first:

Kd [nM] | SMILES
7 | O=c1[nH]c2ccc(N3CCN(c4ccccn4)CC3)nc2[nH]1 [Example 40, 5-[4-(2-Pyridyl)piperazin-1-yl]-1,3-dihydroimidazo[4,5-b]pyridin-2-one]
18 | O=c1[nH]c2ccc(-c3ccc(-n4cccc4)cc3)cc2[nH]1 [Example 41, 5-(4-Pyrrol-1-yl-phenyl)-1,3-dihydro-benzoimidazol-2-one]
336 | O=c1[nH]c2ccc(-c3cccc4ncccc34)cc2[nH]1 [Example 42, 5-Quinolin-5-yl-1,3-dihydro-benzoimidazol-2-one]
100 | CCOC(=O)c1ccc(NS(=O)(=O)c2ccc3[nH]c(=O)[nH]c3c2)cc1 [Example 43, Ethyl 4-((2-oxo-2,3-dihydro-1H-benzo[d]imidazole)-5-sulfonamido)benzoate]
< 1 | Cn1c(=O)[nH]c2nc(-c3ccccc3)ccc21 [Example 44, 1-Methyl-5-phenyl-3H-imidazo[4,5-b]pyridin-2-one]
22 | CNC(=O)c1ccc2c(c1)nc(Cc1ccccc1OC)n2-c1ccc2[nH]c(=O)[nH]c2c1 [Example 45, 2-(2-Methoxybenzyl)-N-methyl-2′-oxo-2′,3′-dihydro-1′H-[1,5′-bibenzo[d]imidazole]-5-carboxamide]
20 | COC(=O)c1cccc2c1nc(C(C)C)n2-c1ccc2[nH]c(=O)[nH]c2c1 [Example 47, Methyl 2-isopropyl-2′-oxo-2′,3′-dihydro-1′H-[1,5′-bibenzo[d]imidazole]-4-carboxylate]
23 | Cn1c(=O)n(C)c2cc(Nc3ccccc3[N+](=O)[O-])ccc21 [Example 49, 1,3-Dimethyl-5-((2-nitrophenyl)amino)-1,3-dihydro-2H-benzo[d]imidazol-2-one]
11 | Cn1c(=O)n(C)c2cc(Nc3ccccc3N)ccc21 [Example 50, 5-((2-Aminophenyl)amino)-1,3-dimethyl-1,3-dihydro-2H-benzo[d]imidazol-2-one]
< 1 | O=C(c1cnc2[nH]c(=O)[nH]c2c1)N1CCc2ccccc21 [Example 55, 6-(Indoline-1-carbonyl)-1,3-dihydro-2H-imidazo[4,5-b]pyridin-2-one]
47 | CNC(=O)c1cccc2c1nc(C(C)C)n2-c1ccc2[nH]c(=O)[nH]c2c1 [Example 60, 2-Isopropyl-N-methyl-2′-oxo-2′,3′-dihydro-1′H-[1,5′-bibenzo[d]imidazole]-4-carboxamide]
< 1 | CC(=O)N1CCN(c2ccc3[nH]c(=O)[nH]c3c2)CC1 [Example 62, 5-(4-Acetylpiperazin-1-yl)-1,3-dihydro-2H-benzo[d]imidazol-2-one]
45 | CNC(=O)c1ccc2c(c1)nc(C1CCOCC1)n2-c1ccc2[nH]c(=O)[nH]c2c1 [Example 64, N-Methyl-2′-oxo-2-(tetrahydro-2H-pyran-4-yl)-2′,3′-dihydro-1′H-[1,5′-bibenzo[d]imidazole]-5-carboxamide]
51 | CNC(=O)c1ccc2c(c1)nc(-c1cc[nH]c1)n2-c1ccc2[nH]c(=O)[nH]c2c1 [Example 66, N-Methyl-2′-oxo-2-(1H-pyrrol-3-yl)-2′,3′-dihydro-1′H-[1,5′-bibenzo[d]imidazole]-5-carboxamide]
5 | O=C(Nc1ccccc1)c1cnc2[nH]c(=O)[nH]c2c1 [Example 67, 2-Oxo-N-phenyl-2,3-dihydro-1H-imidazo[4,5-b]pyridine-6-carboxamide]
9 | O=C(Nc1ccc2[nH]c(=O)[nH]c2c1)c1coc2ccccc12 [Example 68, N-(2-Oxo-2,3-dihydro-1H-benzo[d]imidazol-5-yl)benzofuran-3-carboxamide]
1 | Nc1ccc(CC(=O)Nc2ccc3[nH]c(=O)[nH]c3c2)cc1 [Example 70, 2-(4-Aminophenyl)-N-(2-oxo-2,3-dihydro-1H-benzo[d]imidazol-5-yl)acetamide]
16 | O=C(Nc1ccc2[nH]c(=O)[nH]c2c1)[C@H]1CCCc2ccccc21 [Example 71, (S)—N-(2-Oxo-2,3-dihydro-1H-benzo[d]imidazol-5-yl)-1,2,3,4-tetrahydronaphthalene-1-carboxamide]
11 | O=C(Nc1ccc2[nH]c(=O)[nH]c2c1)c1ccccc1 [Example 73, N-(2-Oxo-2,3-dihydro-1H-benzo[d]imidazol-5-yl)benzamide]
2 | CC(=O)Nc1ccc(C(=O)Nc2ccc3[nH]c(=O)[nH]c3c2)cc1 [Example 74, 4-Acetamido-N-(2-oxo-2,3-dihydro-1H-benzo[d]imidazol-5-yl)benzamide]
7 | CC(=O)Nc1cccc(C(=O)Nc2ccc3[nH]c(=O)[nH]c3c2)c1 [Example 75, 3-Acetamido-N-(2-oxo-2,3-dihydro-1H-benzo[d]imidazol-5-yl)benzamide]
41 | CN(C(=O)c1cnc2[nH]c(=O)[nH]c2c1)c1ccccc1 [Example 76, N-Methyl-2-oxo-N-phenyl-2,3-dihydro-1H-imidazo[4,5-b]pyridine-6-carboxamide]
23 | CC(=O)Nc1ccc(CC(=O)Nc2ccc3[nH]c(=O)[nH]c3c2)cc1 [Example 78, 2-(4-Acetamidophenyl)-N-(2-oxo-2,3-dihydro-1H-benzo[d]imidazol-5-yl)acetamide]

From patent publication US11787802B2, “Dihydrobenzimidazolones for medical treatment” (C4 Therapeutics, Inc., priority 2017, dated 2023)
